Reference: PubChem BioAssay AID330 (DTP/NCI, 2004)
“And” between values parts separate entries of the source, which are not always exact repeats. Equal entries are not always repeated. Toxic doses and inconclusive results are not listed.

System: P388 leukemia ip, CD2F1 mice, survival T/C
Assay: NCI In Vivo Anticancer Drug Screen. Data for tumor model P388 Leukemia (intraperitoneal) in CD2F1 (CDF1) mice
Conditions: endpoint: median survival time, higher = longer survival
Procedure, shortened: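 Mice carrying the transplanted tumor received test compound or vehicle. Survival was recorded in each group, and the value is the treated-group measurement divided by that of the vehicle-treated control group.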

[1] = dose: 60.0 mg/kg/injection, schedule: Q01DX005 (ip), vehicle: saline with Tween-80
[2] = dose: 240.0 mg/kg/injection, schedule: Q01DX005 (ip), vehicle: saline with Tween-80
[3] = dose: 50.0 mg/kg/injection, schedule: Q01DX005 (ip), vehicle: saline with Tween-80
[4] = dose: 100.0 mg/kg/injection, schedule: Q01DX005 (ip), vehicle: saline with Tween-80
[5] = dose: 200.0 mg/kg/injection, schedule: Q01DX005 (ip), vehicle: saline with Tween-80
[6] = dose: 10.0 mg/kg/injection, schedule: Q01DX009 (ip), vehicle: other
[7] = dose: 50.0 mg/kg/injection, schedule: Q01DX005 (ip), vehicle: saline
[8] = dose: 50.0 mg/kg/injection, schedule: Q01DX009 (ip), vehicle: saline with Tween-80
[9] = dose: 50.0 mg/kg/injection, schedule: Q01DX009 (ip), vehicle: saline
[10] = dose: 200.0 mg/kg/injection, schedule: Q01DX009 (ip), vehicle: saline with Tween-80
[11] = dose: 100.0 mg/kg/injection, schedule: Q01DX009 (ip), vehicle: saline with Tween-80

In the case of `O=C(CSc1nnc(CSc2ccc(Cl)cc2)n1-c1ccccc1)NC(=O)Nc1ccccc1`, the T/C (dose: 7.5 mg/kg/injection, schedule: Q01DX005 (ip), vehicle: saline with Tween-80) was 94 % of control, the T/C (dose: 15.0 mg/kg/injection, schedule: Q01DX005 (ip), vehicle: saline with Tween-80) was 90 % of control and the T/C (dose: 30.0 mg/kg/injection, schedule: Q01DX005 (ip), vehicle: saline with Tween-80) was 86 % of control. The T/C [1] was 88 % of control and the T/C [2] was 89 % of control (2×) and 96 % of control.

In the case of `O=C(CCN1CCCCC1)Nc1ccc(F)cc1F`, the T/C [3] was 97 % of control, the T/C [4] was 99 % of control and the T/C [5] was 100 % of control.

In the case of `CC(/C=C/c1ccc(C)cc1)=N\NC(N)=O`, the T/C [3] was 103 % of control, the T/C [4] was 102 % of control and the T/C [5] was 93 % of control.

With `O=C(c1ccc(Br)cc1)c1ccc(Br)cc1` the T/C [6] was 100 % of control, the T/C (dose: 20.0 mg/kg/injection, schedule: Q01DX009 (ip), vehicle: other) was 105 % of control and the T/C (dose: 40.0 mg/kg/injection, schedule: Q01DX009 (ip), vehicle: other) was 92 % of control. For the same molecule, the T/C (dose: 50.0 mg/kg/injection, schedule: Q04DX003 (ip), vehicle: saline) was 99 % of control, the T/C (dose: 80.0 mg/kg/injection, schedule: Q01DX009 (ip), vehicle: other) was 92 % of control and the T/C (dose: 100.0 mg/kg/injection, schedule: Q04DX003 (ip), vehicle: saline) was 93 % of control. For the same molecule, the T/C (dose: 160.0 mg/kg/injection, schedule: Q01DX009 (ip), vehicle: other) was 105 % of control, the T/C (dose: 200.0 mg/kg/injection, schedule: Q04DX003 (ip), vehicle: saline) was 94 % of control and the T/C (dose: 320.0 mg/kg/injection, schedule: Q01DX009 (ip), vehicle: other) was 100 % of control. The T/C (dose: 400.0 mg/kg/injection, schedule: Q04DX003 (ip), vehicle: saline) was 95 % of control.

`COc1ccc(NC(=O)C/C(C)=C2/C(=O)NN(c3ccccc3)C2=O)cc1` was tested, and the T/C [1] was 104 % of control, the T/C (dose: 120.0 mg/kg/injection, schedule: Q01DX005 (ip), vehicle: saline with Tween-80) was 97 % of control and the T/C [2] was 92 % of control.

With `CCCCCC(O)/C=C/[C@H]1C(O)CC2O/C(=C\CCCC(=O)O)C[C@@H]21` (stereo not given in full) the T/C [7] was 102 % of control, the T/C (dose: 100.0 mg/kg/injection, schedule: Q01DX005 (ip), vehicle: saline) was 100 % of control and the T/C (dose: 200.0 mg/kg/injection, schedule: Q01DX005 (ip), vehicle: saline) was 95 % of control.

In the case of `OCC1N2CCC(CC2)C1(O)O` (stereo not given), the T/C (dose: 100.0 mg/kg/injection, schedule: Q04DX003 (ip), vehicle: suspension in saline) was 96 % of control, the T/C (dose: 200.0 mg/kg/injection, schedule: Q04DX003 (ip), vehicle: suspension in saline) was 100 % of control and the T/C (dose: 400.0 mg/kg/injection, schedule: Q04DX003 (ip), vehicle: suspension in saline) was 106 % of control.

In the case of `FC(F)(F)C1=C(C(F)(F)F)SP(Cl)(Cl)(c2ccccc2)S1`, the T/C (dose: 12.5 mg/kg/injection, schedule: Q04DX003 (ip), vehicle: saline with Tween-80) was 105 % of control, the T/C (dose: 25.0 mg/kg/injection, schedule: Q04DX003 (ip), vehicle: saline with Tween-80) was 105 % of control and the T/C (dose: 50.0 mg/kg/injection, schedule: Q04DX003 (ip), vehicle: saline with Tween-80) was 105 % of control. For the same molecule, the T/C (dose: 75.0 mg/kg/injection, schedule: Q04DX003 (ip), vehicle: saline with Tween-80) was 101 % of control.

For `CN1C(=O)c2ccc3c4ccc5c6c(ccc(c7ccc(c2c37)C1=O)c64)C(=O)OC5=O`, the T/C (dose: 50.0 mg/kg/injection, schedule: Q01DX005 (ip), vehicle: Klucel (hydroxypropylcellulose) (HPC)) was 101 % of control, the T/C (dose: 100.0 mg/kg/injection, schedule: Q01DX005 (ip), vehicle: Klucel (hydroxypropylcellulose) (HPC)) was 101 % of control and the T/C (dose: 200.0 mg/kg/injection, schedule: Q01DX005 (ip), vehicle: Klucel (hydroxypropylcellulose) (HPC)) was 103 % of control.

With `O=C1Nc2ccccc2C1(N1CCCCC1)N1CCCCC1` the T/C (dose: 12.5 mg/kg/injection, schedule: Q01DX009 (ip), vehicle: saline) was 99 % of control, the T/C (dose: 25.0 mg/kg/injection, schedule: Q01DX009 (ip), vehicle: saline) was 90 % of control and the T/C [8] was 101 % of control. For the same molecule, the T/C [9] was 92 % of control and the T/C [10] was 86 % of control.

With `Clc1ccccc1N=Cc1ccc(C=Nc2ccccc2Cl)cc1` the T/C (dose: 12.5 mg/kg/injection, schedule: Q01DX009 (ip), vehicle: Klucel (hydroxypropylcellulose) (HPC)) was 99 % of control and the T/C (dose: 25.0 mg/kg/injection, schedule: Q01DX009 (ip), vehicle: Klucel (hydroxypropylcellulose) (HPC)) was 92 % of control.

In the case of `CCOC(=O)C1(C(=O)OCC)CCC1`, the T/C (dose: 50.0 mg/kg/injection, schedule: Q01DX009 (ip), vehicle: Klucel (hydroxypropylcellulose) (HPC)) was 100 % of control, the T/C (dose: 100.0 mg/kg/injection, schedule: Q01DX009 (ip), vehicle: Klucel (hydroxypropylcellulose) (HPC)) was 92 % of control and the T/C (dose: 200.0 mg/kg/injection, schedule: Q01DX009 (ip), vehicle: Klucel (hydroxypropylcellulose) (HPC)) was 96 % of control. For the same molecule, the T/C (dose: 400.0 mg/kg/injection, schedule: Q01DX009 (ip), vehicle: Klucel (hydroxypropylcellulose) (HPC)) was 101 % of control.

In the case of `Cc1ncc(CO)n1C`, the T/C [8] was 104 % of control, the T/C [11] was 101 % of control and the T/C [10] was 101 % of control. For the same molecule, the T/C (dose: 400.0 mg/kg/injection, schedule: Q01DX009 (ip), vehicle: saline with Tween-80) was 113 % of control.

In the case of `CCC[CH2][Sn]([CH2]CCC)([CH2]CCC)[CH2]CCCNCCCN(C)C`, the T/C [9] was 97 % of control and the T/C (dose: 100.0 mg/kg/injection, schedule: Q01DX009 (ip), vehicle: saline) was 100 % of control.

With `CC(C)CC(C)(c1ccc(O)cc1)c1ccc(O)cc1` the T/C [11] was 105 % of control and the T/C [10] was 105 % of control.

`COC(=O)[C@@H]1O[C@H]2OC=C[C@H]21` was tested, and the T/C (dose: 12.5 mg/kg/injection, schedule: Q01DX005 (ip), vehicle: saline) was 112 % of control, the T/C (dose: 25.0 mg/kg/injection, schedule: Q01DX005 (ip), vehicle: saline) was 108 % of control and the T/C [7] was 99 % of control and 100 % of control.

In the case of `Oc1ccccc1/C=N\Nc1ccccc1`, the T/C (dose: 100.0 mg/kg/injection, schedule: Q01DX001 (ip), vehicle: other) was 113 % of control, the T/C (dose: 200.0 mg/kg/injection, schedule: Q01DX001 (ip), vehicle: other) was 118 % of control and the T/C (dose: 400.0 mg/kg/injection, schedule: Q01DX001 (ip), vehicle: other) was 100 % of control.

For `O=C1C2=C(CCC2)C(=O)N1c1ccc(N2C(=O)C3=C(CCC3)C2=O)cc1`, the T/C (dose: 1.56 mg/kg/injection, schedule: Q01DX009 (ip), vehicle: distilled water + Tween-80) was 101 % of control, the T/C (dose: 3.13 mg/kg/injection, schedule: Q01DX009 (ip), vehicle: distilled water + Tween-80) was 102 % of control and the T/C (dose: 6.25 mg/kg/injection, schedule: Q01DX009 (ip), vehicle: distilled water + Tween-80) was 100 % of control. The T/C (dose: 12.5 mg/kg/injection, schedule: Q01DX009 (ip), vehicle: distilled water + Tween-80) was 99 % of control, the T/C (dose: 25.0 mg/kg/injection, schedule: Q01DX009 (ip), vehicle: distilled water + Tween-80) was 107 % of control and the T/C (dose: 50.0 mg/kg/injection, schedule: Q01DX009 (ip), vehicle: distilled water + Tween-80) was 103 % of control. For the same molecule, the T/C (dose: 100.0 mg/kg/injection, schedule: Q01DX009 (ip), vehicle: distilled water + Tween-80) was 119 % of control.

For `CC(=O)N1c2ccccc2C23CCN4CC5=CCOC(O)C(C5CC42)C13` (stereo not given), the T/C (dose: 20.0 mg/kg/injection, schedule: Q01DX009 (ip), vehicle: Klucel (hydroxypropylcellulose) (HPC)) was 107 % of control, the T/C (dose: 40.0 mg/kg/injection, schedule: Q01DX009 (ip), vehicle: Klucel (hydroxypropylcellulose) (HPC)) was 108 % of control and the T/C (dose: 80.0 mg/kg/injection, schedule: Q01DX009 (ip), vehicle: Klucel (hydroxypropylcellulose) (HPC)) was 110 % of control. For the same molecule, the T/C (dose: 160.0 mg/kg/injection, schedule: Q01DX009 (ip), vehicle: Klucel (hydroxypropylcellulose) (HPC)) was 118 % of control.

`O=C1/C(=C/c2ccccc2)CCCC12C(c1ccccc1)N2C1CCCCC1` (stereo not given) was tested, and the T/C (dose: 100.0 mg/kg/injection, schedule: Q04DX002 (ip), vehicle: Klucel (hydroxypropylcellulose) (HPC)) was 93 % of control, the T/C (dose: 200.0 mg/kg/injection, schedule: Q04DX002 (ip), vehicle: Klucel (hydroxypropylcellulose) (HPC)) was 86 % of control and the T/C (dose: 400.0 mg/kg/injection, schedule: Q04DX002 (ip), vehicle: Klucel (hydroxypropylcellulose) (HPC)) was 92 % of control.

With `Cc1ccc2c(NCCCCCCCCNc3c4ccccc4nc4c(C)c(C)ccc34)c3ccccc3nc2c1C` the T/C [6] was 156 % of control.

With `Nc1ncc([N+](=O)[O-])c(Cl)n1` the T/C (dose: 12.5 mg/kg/injection, schedule: Q01DX009 (ip), vehicle: saline with Tween-80) was 105 % of control, the T/C (dose: 25.0 mg/kg/injection, schedule: Q01DX009 (ip), vehicle: saline with Tween-80) was 105 % of control and the T/C [8] was 105 % of control.
